Test results as given in patent publication US9981960B2, “Pyrrolidine compound and application as melanocortin receptor agonist” (MITSUBISHI TANABE PHARMA CORPORATION, priority 2014, dated 2018).

Target: T1, Human MC1R (Homo sapiens, UniProt Q01726)
T1 construct: endogenous in cells; host or cells: human melanoma cell line HBL
Experiment: MCR agonist measurement (cAMP measurement), human MC1R agonist activity in human melanoma cell line HBL
Format: cell-based
Settings: HBL cells; for EC50: 37° C. for 30 minutes, intracellular cAMP by fluorescence method; for Human MC1R IA %: Intrinsic Activity, vehicle cAMP = 0%, αMSH at 10^-6 M = 100%
Protocol: (1) Method for Culturing Cells
Human MC1R agonist activity measurement was carried out by using human melanoma cell line HBL. Culture of HBL: F-10 Nutrient Mixture containing 10% FCS and Penicillin-streptomycin was used in the culture.
(2) cAMP Assay and Data Calculation
Each compound solution having each concentration was mixed with cAMP assay buffer (HBSS (Hank's Balanced Salt Solution) containing 10 mM HEPES and 0.1% BSA), and dispensed into 96 well plate. HBL was suspended in cAMP assay buffer containing 0.5 mM IBMX so that the concentrate became 5×10^4/mL, dispensed into the above 96 well plate, then mixed, left to stand at 37° C. for 30 minutes, and then the intracellular […] concentration was measured by fluorescence method using Envision (ex. 320 nm, em. 590 nm and 665 nm).

T1 sequence (Q01726 whole entry): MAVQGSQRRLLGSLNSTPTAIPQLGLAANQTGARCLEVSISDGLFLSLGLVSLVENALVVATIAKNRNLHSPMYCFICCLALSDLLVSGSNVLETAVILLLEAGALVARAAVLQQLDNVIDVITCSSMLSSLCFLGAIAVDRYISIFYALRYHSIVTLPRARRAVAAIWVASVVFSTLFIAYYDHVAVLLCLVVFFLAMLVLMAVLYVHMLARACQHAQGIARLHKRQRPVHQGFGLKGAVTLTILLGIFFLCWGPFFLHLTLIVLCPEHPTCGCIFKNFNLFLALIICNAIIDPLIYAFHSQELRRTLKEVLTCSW

Row | SMILES | EC50 [nM] | Human MC1R IA % [%]
1 | COC[C@@H]1C[C@@H](c2ccc(C(F)(F)F)cc2N(C)CCCC(=O)O)CN1C(=O)[C@]1(F)CN([C@H]2CC[C@H](OC)CC2)C[C@H]1c1ccc(OC)cc1 [Example 115] | 11 | 85
2 | COC[C@H]1CN(C(=O)[C@]2(F)CN(C3CCCC3)C[C@H]2c2ccc(OC)cc2)C[C@@H]1c1cc(F)c(F)cc1N1CCC(C(=O)O)CC1 [Example 201] | 31 | 107
3 | COc1ccc([C@@H]2CN(C(C)(C)C)C[C@@]2(F)C(=O)N2C[C@H](CO)[C@@H](c3ccc(C(F)(F)F)cc3N3CCC(C(=O)O)CC3)C2)cc1.Cl.Cl [Example 224, 1-{2-[(3S,4R)-1-{[(3R,4R)-1-tert-butyl-3-fluoro-4-(4-methoxyphenyl)pyrrolidin-3-yl]carbonyl}-4-(hydroxymethyl)pyrrolidin-3-yl]-5-(trifluoromethyl)phenyl}piperidine-4-carboxylic acid dihydrochloride] | 11 | 109
4 | COc1ccc([C@@H]2CN(C3CCOC3)C[C@@]2(F)C(=O)N2CCC(c3ccc(C(F)(F)F)cc3N3CCC(C(=O)O)CC3)CC2)cc1 (stereo partly shown) [Example 290] | 115 | 69
5 | COC[C@H]1CN(C(=O)[C@]2(F)CN([C@H]3CC[C@H](OC)CC3)C[C@H]2c2ccc(OC)cc2)C[C@@H]1c1ccc(C(F)(F)F)cc1N1CCC(C(=O)N(C)C)CC1 [Example 256] | 3 | 115
6 | COc1ccc([C@@H]2CN(C(C)(C)C)C[C@@]2(F)C(=O)N2C[C@H](c3ccc(C(F)(F)F)cc3N3CCC(C(=O)O)CC3)[C@@H](C#N)C2)cc1.Cl.Cl [Example 227, 1-{2-[(3S,4R)-1-{[(3R,4R)-1-tert-butyl-3-fluoro-4-(4-methoxyphenyl)pyrrolidin-3-yl]carbonyl}-4-cyanopyrrolidin-3-yl]-5-(trifluoromethyl)phenyl}piperidine-4-carboxylic acid dihydrochloride] | 85 | 114
7 | COc1ccc([C@@H]2CN(C3CCCC3)C[C@@]2(F)C(=O)N2C[C@H](c3ccc(C(F)(F)F)cc3N3CCC(C(=O)O)CC3)C[C@H]2CC#N)cc1 [Example 300] | – | 93
8 | COc1ccc([C@@H]2CN(C3CCCC3)C[C@@]2(F)C(=O)N2C[C@H](c3ccc(C(F)(F)F)cc3N3CCC(C(=O)O)CC3)C[C@H]2CF)cc1 [Example 299] | 0.7 | 83
9 | CNC(=O)C1CCN(c2cc(C(F)(F)F)ccc2C2CCN(C(=O)[C@]3(F)CN(C(C)(C)C)C[C@H]3c3ccc(OC)cc3)CC2)CC1.Cl.Cl [Example 231, 1-[2-(1-{[(3R,4R)-1-tert-butyl-3-fluoro-4-(4-methoxyphenyl)pyrrolidin-3-yl]carbonyl}piperidin-4-yl)-5-(trifluoromethyl)phenyl]-N-methylpiperidine-4-carboxamide dihydrochloride] | 11 | 82
10 | COc1ccc([C@@H]2CN(C(C)(C)C)C[C@@]2(F)C(=O)N2CCC(c3ccc(C(F)(F)F)cc3N3CCC(C(=O)NS(C)(=O)=O)CC3)CC2)cc1 [Example 274] | 7.5 | 89
11 | COC[C@H]1CN(C(=O)[C@]2(F)CN(C3CCCCC3)C[C@H]2c2ccc(OC)cc2)C[C@@H]1c1ccc(C(F)(F)F)cc1N1CCC(C(=O)O)CC1 [Example 27] | 6.5 | 78
12 | CCO[C@H]1CC[C@H](N2C[C@@H](c3ccc(OC)cc3)[C@](OC)(C(=O)N3C[C@H](COC)[C@@H](c4ccc(C(F)(F)F)cc4N4CCC(C(=O)O)CC4)C3)C2)CC1 [Example 140] | 4.1 | 98
13 | COC[C@@]1(OC)CN(C(=O)[C@]2(F)CN([C@H]3CC[C@H](OC)CC3)C[C@H]2c2ccc(OC)cc2)C[C@@H]1c1ccc(C(F)(F)F)cc1N1CCC(C(=O)O)CC1 [Example 156] | 29 | 83
14 | COc1ccc([C@@H]2CN(C(C)(C)C)C[C@@]2(F)C(=O)N2CCC(C#N)(c3ccc(C(F)(F)F)cc3-c3ccc(C(=O)O)cc3)CC2)cc1 [Example 87] | 56 | 90
15 | COc1ccc([C@@H]2CN(CCCS(=O)(=O)N3CCCC3)C[C@@]2(F)C(=O)N2CCC(c3ccc(C(F)(F)F)cc3N3CCC(C(=O)O)CC3)CC2)cc1 [Example 45] | 23 | 105
16 | COC[C@H]1CN(C(=O)[C@]2(F)CN(c3ccnc(C)c3)C[C@H]2c2ccc(OC)cc2)C[C@@H]1c1ccc(C(F)(F)F)cc1N1CCC(C(=O)O)CC1 [Example 59] | 1.2 | 98
17 | COC[C@H]1CN(C(=O)[C@]2(F)CN(C3CCOCC3)C[C@H]2c2ccc(OC)cc2)C[C@@H]1c1ccc(C(F)(F)F)cc1N1CCC(c2nnn[nH]2)CC1.Cl.Cl [Example 279, [(3R,4R)-3-fluoro-4-(4-methoxyphenyl)-1-(tetrahydro-2H-pyran-4-yl)pyrrolidin-3-yl][(3R,4S)-3-(methoxymethyl)-4-{2-[4-(1H-tetrazol-5-yl)piperidin-1-yl]-4-(trifluoromethyl)phenyl}pyrrolidin-1-yl]methanone dihydrochloride] | 59 | 90

Row | SMILES | EC50 [nM] | Human MC1R IA % [%]
18 | COc1ccc([C@@H]2CN(C(C)(C)C)C[C@@]2(F)C(=O)N2CCC(c3ccc(C(F)(F)F)cc3N3CCC(C(=O)N4CCCC4)CC3)CC2)cc1 [Example 235] | 79 | 124
19 | COc1ccc([C@@H]2CN(C(C)(C)C)C[C@@]2(F)C(=O)N2CCC(c3ccc(C(F)(F)F)cc3OCCCc3nnn[nH]3)CC2)cc1.Cl [Example 280, [(3R,4R)-1-tert-butyl-3-fluoro-4-(4-methoxyphenyl)pyrrolidin-3-yl](4-{2-[3-(1H-tetrazol-5-yl)propoxy]-4-(trifluoromethyl)phenyl}piperidin-1-yl)methanone hydrochloride] | 42 | 86
20 | COc1ccc([C@@H]2CN(C(C)(C)C)C[C@@]2(F)C(=O)N2CCC(c3ccc(Cl)cc3N3CCC(C(=O)O)CC3)CC2)cc1 [Example 195] | 40 | 87
21 | COc1ccc([C@@H]2CN(C3CCCC3)C[C@@]2(F)C(=O)N2C[C@H](c3ccc(F)cc3N3CCC(C(=O)O)CC3)[C@@H](C)C2)cc1 [Example 100] | 9.7 | 90
22 | COc1ccc([C@@H]2CN(C(C)(C)C)C[C@@]2(F)C(=O)N2CCC(c3ccc(C(F)(F)F)cc3[C@H]3CC[C@H](C(=O)O)CC3)CC2)cc1 [Example 85] | 60 | 75
23 | COC[C@@H]1C[C@@H](c2ccc(C(F)(F)F)cc2N2CCC(C(=O)O)CC2)CN1C(=O)[C@]1(OC)CN(C2CCCCCC2)C[C@H]1c1ccc(OC)cc1 [Example 154] | 1.1 | 85
24 | COc1ccc([C@@H]2CN(C3CCCC3)C[C@@]2(F)C(=O)N2CC(c3ccc(C(F)(F)F)cc3N3CCC(C(=O)O)CC3)C(F)(F)C2)cc1 (single isomer, unassigned) [Example 293] | 20 | 99
25 | COc1ccc([C@@H]2CN(C3CCCC3)C[C@@]2(F)C(=O)N2C[C@H](c3ccc(C(F)(F)F)cc3N3CCC(C(=O)O)CC3)[C@@H](C(C)(C)O)C2)cc1.Cl.Cl [Example 228, 1-{2-[(3S,4R)-1-{[(3R,4R)-1-cyclopentyl-3-fluoro-4-(4-methoxyphenyl)pyrrolidin-3-yl]carbonyl}-4-(2-hydroxypropan-2-yl)pyrrolidin-3-yl]-5-(trifluoromethyl)phenyl}piperidine-4-carboxylic acid dihydrochloride] | 11 | 77
26 | COC[C@H]1CN(C(=O)[C@]2(F)CN(C3CCCC3)C[C@H]2c2ccc(OC)cc2)C[C@@H]1c1ccc(C(F)(F)F)cc1N1CCC(C(=O)O)CC1 [Example 19] | – | 88
27 | COC[C@H]1CN(C(=O)[C@]2(F)CN(CC(=O)N3CCCCC3)C[C@H]2c2ccc(OC)cc2)C[C@@H]1c1ccc(C(F)(F)F)cc1N1CCC(C(=O)O)CC1 [Example 306] | 6.8 | 96
28 | COc1ccc([C@@H]2CN(C(C)(C)C)C[C@@]2(F)C(=O)N2CCC(c3ccc(C(F)(F)F)cc3-c3nc(C(=O)O)co3)CC2)cc1 [Example 79] | 67 | 103
29 | COC[C@@H]1C[C@@H](c2ccc(C(F)(F)F)cc2N2CCC(C(=O)O)CC2)CN1C(=O)[C@]1(F)CN([C@H]2CC[C@H](C#N)CC2)C[C@H]1c1ccc(OC)cc1 [Example 143] | 0.76 | 96
30 | COC[C@H]1CN(C(=O)[C@]2(F)CN(c3ccnc(OC)c3)C[C@H]2c2ccc(OC)cc2)C[C@@H]1c1ccc(C(F)(F)F)cc1N1CCC(C(=O)O)CC1 [Example 61] | 30 | 69
31 | COc1ccc([C@@H]2CN(C(C)(C)CO)C[C@@]2(F)C(=O)N2CCC(c3ccc(C(F)(F)F)cc3N3CCC(C(=O)O)CC3)CC2)cc1 [Example 320] | 30 | 79
32 | COc1ccc([C@@H]2CN(C(C)(C)C)C[C@@]2(F)C(=O)N2CC[C@H](c3ccc(C(F)(F)F)cc3N3CCC(C(=O)O)CC3)C2)cc1.Cl.Cl [Example 286b, 1-{2-[(3R)-1-{[(3R,4R)-1-tert-butyl-3-fluoro-4-(4-methoxyphenyl)pyrrolidin-3-yl]carbonyl}pyrrolidin-3-yl]-5-(trifluoromethyl)phenyl}piperidine-4-carboxylic acid dihydrochloride] | 189 | 71
33 | COC[C@H]1CN(C(=O)[C@]2(F)CN(c3ccc(OC)nn3)C[C@H]2c2ccc(OC)cc2)C[C@@H]1c1ccc(C(F)(F)F)cc1N1CCC(C(=O)O)CC1 [Example 64] | 19 | 53
